In ChEMBL document CHEMBL1201862, “PubChem BioAssay data set” (2004):
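Each compound was tested at five concentrations against cells in 96-well plates for 48 hours. Abbreviation: GI50, concentration required for 50% inhibition of growth.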 Active and inactive are the calls of the source. Rule as the data show it: active = GI50 up to about 1.1 µM and inactive = higher.

What was measured:
Assay in all cases: DTP human tumour cell line panel, 48 h
A498 = system: A498
A549 = system: A549
ACHN = system: ACHN
BT-549 = system: BT-549
CAKI-1 = system: CAKI-1
CCRF-CEM = system: CCRF-CEM
COLO 205 = system: COLO 205
DU-145 = system: DU-145
EKVX = system: EKVX
HCC 2998 = system: HCC 2998
HOP-62 = system: HOP-62
HOP-92 = system: HOP-92
HT-29 = system: HT-29
Hs-578T = system: Hs-578T
IGROV-1 = system: IGROV-1
K562 = system: K562
KM12 = system: KM12
LOX IMVI = system: LOX IMVI
M14 = system: M14
MCF7 = system: MCF7
MDA-MB-231 = system: MDA-MB-231
MDA-MB-435 = system: MDA-MB-435
MDA-N = system: MDA-N
MOLT-4 = system: MOLT-4
Malme-3M = system: Malme-3M
NCI-H226 = system: NCI-H226
NCI-H23 = system: NCI-H23
NCI-H460 = system: NCI-H460
NCI-H522 = system: NCI-H522
NCI/ADR-RES = system: NCI/ADR-RES
OVCAR-3 = system: OVCAR-3
OVCAR-5 = system: OVCAR-5
OVCAR-8 = system: OVCAR-8
PC-3 = system: PC-3
RPMI-8226 = system: RPMI-8226
RXF 393 = system: RXF 393
SF-268 = system: SF-268
SF-539 = system: SF-539
SK-MEL-28 = system: SK-MEL-28
SK-MEL-2 = system: SK-MEL-2
SK-MEL-5 = system: SK-MEL-5
SN12C = system: SN12C
SNB-19 = system: SNB-19
SNB-75 = system: SNB-75
SW-620 = system: SW-620
T47D = system: T47D
TK-10 = system: TK-10
U-251 = system: U-251
UACC-257 = system: UACC-257
UO-31 = system: UO-31
786-0 = system: 786-0
HCT-116 = system: HCT-116
HCT-15 = system: HCT-15
HL-60 = system: HL-60
OVCAR-4 = system: OVCAR-4
SF-295 = system: SF-295
SK-OV-3 = system: SK-OV-3
UACC-62 = system: UACC-62

SMILES: O=c1cnn(CCOCP(=O)(O)O)c(=O)[nH]1
- GI50 (A498): > 100 µM (inactive)
- GI50 (A549): > 100 µM (inactive)
- GI50 (ACHN): > 100 µM (inactive)
- GI50 (BT-549): > 100 µM (inactive)
- GI50 (CAKI-1): > 100 µM (inactive)
- GI50 (CCRF-CEM): > 100 µM (inactive)
- GI50 (COLO 205): > 100 µM (inactive)
- GI50 (DU-145): > 100 µM (inactive)
- GI50 (EKVX): > 100 µM (inactive)
- GI50 (HCC 2998): > 100 µM (inactive)
- GI50 (HOP-62): > 100 µM (inactive)
- GI50 (HOP-92): > 100 µM (inactive)
- GI50 (HT-29): > 100 µM (inactive)
- GI50 (Hs-578T): > 100 µM (inactive)
- GI50 (IGROV-1): > 100 µM (inactive)
- GI50 (K562): > 100 µM (inactive)
- GI50 (KM12): > 100 µM (inactive)
- GI50 (LOX IMVI): > 100 µM (inactive)
- GI50 (M14): > 100 µM (inactive)
- GI50 (MCF7): > 100 µM (inactive)
- GI50 (MDA-MB-231): > 100 µM (inactive)
- GI50 (MDA-MB-435): > 100 µM (inactive)
- GI50 (MDA-N): > 100 µM (inactive)
- GI50 (MOLT-4): > 100 µM (inactive)
- GI50 (Malme-3M): > 100 µM (inactive)
- GI50 (NCI-H226): > 100 µM (inactive)
- GI50 (NCI-H23): > 100 µM (inactive)
- GI50 (NCI-H460): > 100 µM (inactive)
- GI50 (NCI-H522): > 100 µM (inactive)
- GI50 (NCI/ADR-RES): > 100 µM (inactive)
- GI50 (OVCAR-3): > 100 µM (inactive)
- GI50 (OVCAR-5): > 100 µM (inactive)
- GI50 (OVCAR-8): > 100 µM (inactive)
- GI50 (PC-3): > 100 µM (inactive)
- GI50 (RPMI-8226): > 100 µM (inactive)
- GI50 (RXF 393): > 100 µM (inactive)
- GI50 (SF-268): > 100 µM (inactive)
- GI50 (SF-539): > 100 µM (inactive)
- GI50 (SK-MEL-28): > 100 µM (inactive)
- GI50 (SK-MEL-2): > 100 µM (inactive)
- GI50 (SK-MEL-5): > 100 µM (inactive)
- GI50 (SN12C): > 100 µM (inactive)
- GI50 (SNB-19): > 100 µM (inactive)
- GI50 (SNB-75): > 100 µM (inactive)
- GI50 (SW-620): > 100 µM (inactive)
- GI50 (T47D): > 100 µM (inactive)
- GI50 (TK-10): > 100 µM (inactive)
- GI50 (U-251): > 100 µM (inactive)
- GI50 (UACC-257): > 100 µM (inactive)
- GI50 (UO-31): > 100 µM (inactive)

SMILES: CCOC(=O)C1=C(C)NC(C)=C(C(=O)OCC)C1c1ccc(Cl)cc1
- GI50 (786-0): 13 µM (inactive)
- GI50 (A498): 16.4 µM (inactive)
- GI50 (A549): 15.4 µM (inactive)
- GI50 (ACHN): 16 µM (inactive)
- GI50 (BT-549): 17.1 µM (inactive)
- GI50 (CAKI-1): 16.5 µM (inactive)
- GI50 (CCRF-CEM): 1.43 µM (inactive)
- GI50 (COLO 205): 16.3 µM (inactive)
- GI50 (DU-145): 17.3 µM (inactive)
- GI50 (EKVX): 16.8 µM (inactive)
- GI50 (HCC 2998): 14.7 µM (inactive)
- GI50 (HCT-116): 9.14 µM (inactive)
- GI50 (HCT-15): 16.6 µM
- GI50 (HL-60): 0.774 µM (active)
- GI50 (HOP-62): 14.8 µM (inactive)
- GI50 (HOP-92): 10.3 µM (inactive)
- GI50 (HT-29): 10.9 µM (inactive)
- GI50 (Hs-578T): 19.6 µM (inactive)
- GI50 (IGROV-1): 15.1 µM (inactive)
- GI50 (K562): 9.91 µM (inactive)
- GI50 (KM12): 17.5 µM (inactive)
- GI50 (LOX IMVI): 16.8 µM (inactive)
- GI50 (M14): 16.6 µM (inactive)
- GI50 (MCF7): 17.1 µM (inactive)
- GI50 (MDA-MB-231): 15.3 µM (inactive)
- GI50 (MDA-MB-435): 14.4 µM (inactive)
- GI50 (MDA-N): 13.2 µM (inactive)
- GI50 (MOLT-4): 6.1 µM (inactive)
- GI50 (Malme-3M): 18.1 µM (inactive)
- GI50 (NCI-H23): 14.4 µM (inactive)
- GI50 (NCI-H460): 4.6 µM (inactive)
- GI50 (NCI-H522): 16 µM (inactive)
- GI50 (NCI/ADR-RES): 17.7 µM (inactive)
- GI50 (OVCAR-3): 15.8 µM (inactive)
- GI50 (OVCAR-4): 12.5 µM (inactive)
- GI50 (OVCAR-5): 13.4 µM (inactive)
- GI50 (OVCAR-8): 16.1 µM (inactive)
- GI50 (PC-3): 14.9 µM (inactive)
- GI50 (RPMI-8226): 9.48 µM (inactive)
- GI50 (RXF 393): 14.1 µM (inactive)
- GI50 (SF-268): 17.5 µM (inactive)
- GI50 (SF-295): 12.7 µM (inactive)
- GI50 (SF-539): 18.8 µM (inactive)
- GI50 (SK-MEL-28): 20.4 µM (inactive)
- GI50 (SK-MEL-2): 18.7 µM (inactive)
- GI50 (SK-MEL-5): 13.7 µM (inactive)
- GI50 (SK-OV-3): 16.7 µM (inactive)
- GI50 (SN12C): 19.4 µM (inactive)
- GI50 (SNB-19): 16.7 µM (inactive)
- GI50 (SNB-75): 18.7 µM (inactive)
- GI50 (SW-620): 16.3 µM (inactive)
- GI50 (T47D): 15.6 µM (inactive)
- GI50 (TK-10): 14.8 µM (inactive)
- GI50 (U-251): 16.8 µM (inactive)
- GI50 (UACC-257): 13.4 µM (inactive)
- GI50 (UACC-62): 12.1 µM (inactive)
- GI50 (UO-31): 20.3 µM (inactive)

SMILES: O=C([O-])C[n+]1ccccc1.c1ccncc1
- GI50 (786-0): > 100 µM (inactive)
- GI50 (A498): > 100 µM (inactive)
- GI50 (A549): > 100 µM (inactive)
- GI50 (ACHN): > 100 µM (inactive)
- GI50 (BT-549): > 100 µM (inactive)
- GI50 (CAKI-1): > 100 µM (inactive)
- GI50 (CCRF-CEM): > 100 µM (inactive)
- GI50 (COLO 205): > 100 µM (inactive)
- GI50 (DU-145): > 100 µM (inactive)
- GI50 (EKVX): > 100 µM (inactive)
- GI50 (HCT-116): > 100 µM (inactive)
- GI50 (HCT-15): > 100 µM
- GI50 (HL-60): 97.1 µM (inactive)
- GI50 (HOP-62): > 100 µM (inactive)
- GI50 (HOP-92): > 100 µM (inactive)
- GI50 (HT-29): > 100 µM (inactive)
- GI50 (Hs-578T): > 100 µM (inactive)
- GI50 (IGROV-1): > 100 µM (inactive)
- GI50 (K562): > 100 µM (inactive)
- GI50 (KM12): > 100 µM (inactive)
- GI50 (LOX IMVI): > 100 µM (inactive)
- GI50 (M14): > 100 µM (inactive)
- GI50 (MCF7): > 100 µM (inactive)
- GI50 (MDA-MB-231): > 100 µM (inactive)
- GI50 (MDA-MB-435): > 100 µM (inactive)
- GI50 (MDA-N): > 100 µM (inactive)
- GI50 (MOLT-4): 33.1 µM (inactive)
- GI50 (Malme-3M): > 100 µM (inactive)
- GI50 (NCI-H226): > 100 µM (inactive)
- GI50 (NCI-H23): > 100 µM (inactive)
- GI50 (NCI-H460): > 100 µM (inactive)
- GI50 (NCI-H522): > 100 µM (inactive)
- GI50 (NCI/ADR-RES): > 100 µM (inactive)
- GI50 (OVCAR-3): > 100 µM (inactive)
- GI50 (OVCAR-4): > 100 µM (inactive)
- GI50 (OVCAR-5): > 100 µM (inactive)
- GI50 (OVCAR-8): > 100 µM (inactive)
- GI50 (PC-3): > 100 µM (inactive)
- GI50 (RPMI-8226): > 100 µM (inactive)
- GI50 (RXF 393): > 100 µM (inactive)
- GI50 (SF-268): > 100 µM (inactive)
- GI50 (SF-295): > 100 µM (inactive)
- GI50 (SF-539): > 100 µM (inactive)
- GI50 (SK-MEL-28): > 100 µM (inactive)
- GI50 (SK-MEL-2): > 100 µM (inactive)
- GI50 (SK-MEL-5): > 100 µM (inactive)
- GI50 (SK-OV-3): > 100 µM (inactive)
- GI50 (SN12C): > 100 µM (inactive)
- GI50 (SNB-19): > 100 µM (inactive)
- GI50 (SNB-75): > 100 µM (inactive)
- GI50 (SW-620): > 100 µM (inactive)
- GI50 (T47D): > 100 µM (inactive)
- GI50 (TK-10): > 100 µM (inactive)
- GI50 (U-251): > 100 µM (inactive)
- GI50 (UACC-257): > 100 µM (inactive)
- GI50 (UACC-62): > 100 µM (inactive)
- GI50 (UO-31): > 100 µM (inactive)
